Measured values as given in publication PMC5085792, “Seeking for Non-Zinc-Binding MMP-2 Inhibitors: Synthesis, Biological Evaluation and Molecular Modelling Studies” (International Journal of Molecular Sciences, 2016).

What was measured:
[1] = target: T1, catalytic domain of MMP-13 (Homo sapiens, UniProt P45452); assay: MMP-13 enzyme inhibition assay (fluorogenic substrate); assay type: biochemical; settings: mean ± SEM of at least three independent measurements in triplicate
T1 construct: The catalytic domains of MMP-2, MMP-8 and MMP-13 were purchased from Enzo Life Sciences; purchased Enzo Life Sciences (Lörrach, Germany)
Protocol: (§1) The synthesized compounds were submitted to MMP inhibition assays. A dose/response preliminary screening was performed at 100 µM by registering the residual enzyme activity on MMP-2, MMP-8 and MMP-13 (Figure 4). Compounds showing a percentage of inhibition higher than 50% were submitted to IC50 calculation.
(§2) The catalytic domains of MMP-2, MMP-8 and MMP-13 were purchased from Enzo Life Sciences (Lörrach, Germany). The assays were performed in triplicate in 96-well white microtiter plates (Corning, NBS; Corning, NY, USA). For assay measurements, inhibitor stock solutions (DMSO, 10 mM) were diluted to six different concentrations (1 nM–100 µM) in fluorometric assay buffer (50 mM Tris·HCl pH 7.5, 200 mM NaCl, 1 mM CaCl2, 1 µM ZnCl2, 0.05% Brij-35 and 1% DMSO). Enzyme and inhibitor solutions were incubated in the assay buffer for 15 min at room temperature before the addition of the fluorogenic substrate solution (OmniMMP® = Mca-Pro-Leu-Gly-Leu-Dpa-Ala-Arg-NH2, Enzo Life Sciences, 2.5 µM final concentration or OmniMMP®RED = TQ3-GABA-Pro-Cha-Abu-Smc-His-Ala-Dab(6’-TAMRA)-Ala-Lys-NH2, (TAMRA: tetramethylrhodamine) Enzo Life Sciences, 1 µM final concentration). After further incubation for 2–4 h at 37 °C, fluorescence was measured (λex = 340 nm, λem = 405 nm or λex = 545 nm, λem = 572 nm) using a Perkin-Elmer Victor V3 plate reader (Waltham, MA, USA). Control wells lacked inhibitor. The MMP inhibition activity was expressed in relative fluorescence units (RFU). Percent inhibition was calculated from control reactions without inhibitor; IC50 values were determined using GraphPad Prism version 5.0f and are expressed as the mean ± SEM of at least three independent measurements in triplicate.

[2] = target: T2, catalytic domain of MMP-8 (Homo sapiens, UniProt P22894); assay: MMP-8 enzyme inhibition assay (fluorogenic substrate); assay type: biochemical; settings: mean ± SEM of at least three independent measurements in triplicate
T2 construct: The catalytic domains of MMP-2, MMP-8 and MMP-13 were purchased from Enzo Life Sciences; purchased Enzo Life Sciences (Lörrach, Germany)
T2 sequence (P22894 100-262 limits assumed): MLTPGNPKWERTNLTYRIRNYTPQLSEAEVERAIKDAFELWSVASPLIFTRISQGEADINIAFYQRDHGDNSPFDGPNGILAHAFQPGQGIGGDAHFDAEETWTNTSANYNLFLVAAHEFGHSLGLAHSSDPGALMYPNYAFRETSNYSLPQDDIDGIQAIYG
Protocol: as §1, §2

[3] = target: T3, catalytic domain of MMP-2 (Homo sapiens, UniProt P08253); assay: MMP-2 enzyme inhibition assay (fluorogenic substrate); assay type: biochemical; settings: for IC50: mean ± SEM of at least three independent measurements in triplicate
T3 construct: The catalytic domains of MMP-2, MMP-8 and MMP-13 were purchased from Enzo Life Sciences; purchased Enzo Life Sciences (Lörrach, Germany)
T3 sequence (P08253 110-446 limits assumed): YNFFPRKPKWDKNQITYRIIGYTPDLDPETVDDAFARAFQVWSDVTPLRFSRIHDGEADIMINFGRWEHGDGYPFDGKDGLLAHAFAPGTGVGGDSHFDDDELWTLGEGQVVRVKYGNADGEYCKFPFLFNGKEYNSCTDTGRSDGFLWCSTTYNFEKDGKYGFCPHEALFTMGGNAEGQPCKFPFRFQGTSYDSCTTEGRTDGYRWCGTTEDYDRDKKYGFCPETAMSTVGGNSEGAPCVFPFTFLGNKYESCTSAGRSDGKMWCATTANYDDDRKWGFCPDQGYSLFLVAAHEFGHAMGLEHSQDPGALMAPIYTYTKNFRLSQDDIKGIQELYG
Protocol: as §1, §2

[4] = test system: MMP-2; parameters: method as in PMID 23873724; settings: previous work, virtual screening hits; cited from earlier work
[5] = test system: MMP-13; parameters: method as in PMID 23873724; settings: previous work, virtual screening hits; cited from earlier work
[6] = test system: MMP-8; parameters: method as in PMID 23873724; settings: previous work, virtual screening hits; cited from earlier work

Row | melting point | Structure (SMILES) | further results
1 | 167 to 169 °C | O=C(NCc1ccccc1)Nc1ccnc2ccccc12 [Compound 1b] | 
2 | 251 °C (dec.) | O=C(NCc1ccccc1)Nc1cccc2ncccc12 [Compound 1c] | IC50 [1]: 58 ± 1 µM; IC50 [2]: > 100 µM; IC50 [3]: 55 ± 1 µM
3 | 164 to 165 °C | O=C(NCc1ccccc1)Nc1nccc2ccccc12 [Compound 1e] | 
4 | 168 to 170 °C | O=C(NCc1ccccc1)Nc1cc2ccccc2cn1 [Compound 1f] | 
5 | 235 to 237 °C | O=C(NCc1ccccc1)Nc1cncc2ccccc12 [Compound 1g] | IC50 [1]: 73 ± 11 µM; IC50 [2]: > 100 µM; IC50 [3]: 74 ± 3 µM
6 | 248 to 249 °C | O=C(NCc1ccccc1)Nc1cccc2cnccc12 [Compound 1h] | IC50 [1]: 14 ± 4 µM; IC50 [2]: > 100 µM; IC50 [3]: 15 ± 4 µM
7 | 206 to 208 °C | O=C(NCc1ccccc1)Nc1cccc2ccncc12 [Compound 1i] | MMP inhibition activity (in words) ([3]; preliminary screening at 100 µM, isoform not given, MMP-2): inactive
8 | 197 to 198 °C | O=C(NCc1ccccc1)Nc1ccc2[nH]ccc2c1 [Compound 1j] | 
9 | 211 to 213 °C | O=C(NCc1ccccc1)Nc1ccc2cc[nH]c2c1 [Compound 1k] | 
10 |  | O=C(NCc1ccccc1)Nc1ccc2[nH]ncc2c1 [Compound 1l] | IC50 [1]: 98 ± 2 µM; IC50 [2]: > 100 µM; IC50 [3]: 86 ± 2 µM
11 | 198 to 199 °C | O=C(NCc1ccccc1)Nc1ccc2cn[nH]c2c1 [Compound 1m] | 
12 | 196 to 197 °C | O=C(NCc1ccccc1)Nc1cccc2ccccc12 [Compound 1n] | 
13 | 208 to 210 °C | O=C(NCc1ccccc1)Nc1ccc2ccccc2c1 [Compound 1o] | 
14 | 148 to 150 °C | O=C(NCc1ccccc1)Nc1ccccn1 [Compound 1p] | 
15 | 154 to 156 °C | O=C(NCc1ccccc1)Nc1cccnc1 [Compound 1q] | 
16 | 177 to 179 °C | O=C(NCc1ccccc1)Nc1ccc(O)cc1 [Compound 1s] | 
17 | 149 °C | COc1cccc(CNC(=O)NCc2ccccc2)c1OC [Compound 1t] | 
18 | 127 °C | COc1ccc(CNC(=O)NCc2ccccc2)cc1OC [Compound 1u] | 
19 | 116 to 118 °C | CC(NC(=O)NCc1ccccc1)c1ccccc1 (stereo not drawn) [Compound 1w] | 
20 | 124 to 126 °C | O=C(NCc1ccccc1)NN1CCCC1 [Compound 1z] | 
21 | 186 to 188 °C | O=C(Cc1ccccc1)Nc1cccc2cnccc12 [Compound 2a] | 
22 | 133 to 135 °C | O=C(CCc1ccccc1)Nc1cccc2cnccc12 [Compound 2b] | 
23 | 182 to 183 °C | O=C(NCc1ccccc1)c1cccc2cnccc12 [Compound 2c] | 
24 | 120 to 121 °C | O=C(NCCc1ccccc1)c1cccc2cnccc12 [Compound 2d] | 
25 | 228 to 230 °C | O=S(=O)(Nc1ccc2cnccc2c1)c1ccccc1 [Compound 2e] | 
26 | 117 to 119 °C | O=C(NCc1ccc(NS(=O)(=O)c2ccccc2)cc1)Nc1cccc2cnccc12 [Compound 5] | IC50 [1]: 55 ± 7 µM; IC50 [2]: 88 ± 5 µM; IC50 [3]: 54 ± 7 µM
27 | 200 to 202 °C | O=C(NCc1ccc(NC(=O)c2ccccc2)cc1)Nc1cccc2cnccc12 [Compound 7] | IC50 [1]: 6.6 ± 0.4 µM; IC50 [2]: 48.5 ± 1.6 µM; IC50 [3]: 7.4 ± 0.8 µM
28 |  | O=C(NCc1ccco1)Nc1c[nH]c2cccnc2c1=O [Hit 1] | IC50 [4]: 5 µM; IC50 [5]: 36 µM; IC50 [6]: 75 µM
29 |  | O=C(NCc1ccco1)Nc1c[nH]c2ccc(F)cc2c1=O [Hit 2] | IC50 [4]: 15 µM; IC50 [5]: 5 µM; IC50 [6]: 105 µM
